From patent publication US9963444B2, “N-acylethanolamine hydrolyzing acid amidase (NAAA) inhibitors and their use thereof” (Northeastern University, priority 2014, dated 2018)

target: hNAAA (Homo sapiens (Human), UniProt Q02083); experiment: Fluorescence-based NAAA inhibition assay with fluorogenic substrate PAMCA; conditions: not given;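 further: compound preincubated 15 min at room temperature with hNAAA, then PAMCA added at 5 µM, reacted 120 min at 37 °C, AMC release read by fluorescence (ex 360, em 460 nm)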
Sequence (Q02083 29-125): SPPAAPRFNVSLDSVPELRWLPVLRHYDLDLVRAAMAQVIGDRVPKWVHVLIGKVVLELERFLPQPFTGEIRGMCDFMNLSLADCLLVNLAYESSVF
Sequence (Q02083 126-359): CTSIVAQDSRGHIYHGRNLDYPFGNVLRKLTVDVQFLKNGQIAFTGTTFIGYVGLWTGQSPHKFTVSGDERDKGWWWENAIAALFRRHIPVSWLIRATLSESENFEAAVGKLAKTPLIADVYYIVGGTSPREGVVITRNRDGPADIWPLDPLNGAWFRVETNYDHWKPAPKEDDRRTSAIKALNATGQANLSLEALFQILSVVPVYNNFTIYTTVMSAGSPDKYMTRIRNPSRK

Row | Structure (SMILES) | IC50 [µM]
1 | CN(Cc1ccc(-c2ccccc2)cc1)[C@H]1C[C@@H](N=C=S)C1 [Example 54, (1S,3S)—N-([1,1′-biphenyl]-4-ylmethyl)-3-isothiocyanato-N-methylcyclobutan-1-amine] | > 1
2 | S=C=NC[C@H]1C[C@@H](OCc2ccc(-c3ccccc3)cc2)C1 [Example 57, 4-(((1S,3S)-3-(isothiocyanatomethyl)cyclobutoxy)methyl)-1,1′-biphenyl] | 0.11 to 1
3 | COc1ccc(-c2ccc(COC3CN(C#N)C3)cc2)cc1 [Example 63, 3-((4′-Methoxy-[1,1′-biphenyl]-4-yl)methoxy)azetidine-1-carbonitrile] | 0.01 to 0.1
4 | N#CN1CC(OCc2ccc(-c3ccccc3)cc2)C1 [Example 64, 3-([1,1′-Biphenyl]-4-ylmethoxy)azetidine-1-carbonitrile] | 0.01 to 0.1
5 | COc1ccc(-c2ccc(COC3CN(C#N)C3)cc2)c(OC)c1 [Example 65, 3-((2′,4′-Dimethoxy-[1,1′-biphenyl]-4-yl)methoxy)azetidine-1-carbonitrile] | 0.01 to 0.1
6 | N#CN1CC(OCc2cccc(-c3ccccc3)c2)C1 [Example 66, 3-([1,1′-Biphenyl]-3-ylmethoxy)azetidine-1-carbonitrile] | 0.01 to 0.1
7 | COc1cccc(-c2ccc(COC3CN(C#N)C3)cc2)c1 [Example 67, 3-((3′-Methoxy-[1,1′-biphenyl]-4-yl)methoxy)azetidine-1-carbonitrile] | 0.01 to 0.1
8 | COc1ccc(OC)c(-c2ccc(COC3CN(C#N)C3)cc2)c1 [Example 68, 3-((2′,5′-Dimethoxy-[1,1′-biphenyl]-4-yl)methoxy)azetidine-1-carbonitrile] | 0.01 to 0.1
9 | COc1cccc(-c2ccc(COC3CN(C#N)C3)cc2)c1OC [Example 69, 3-((2′,3′-Dimethoxy-[1,1′-biphenyl]-4-yl)methoxy)azetidine-1-carbonitrile] | 0.01 to 0.1
10 | N#CN1CC(OCc2ccc(-c3cccc(C(F)(F)F)c3)cc2)C1 [Example 70, 3-((3′-(Trifluoromethyl)-[1,1′-biphenyl]-4-yl)methoxy)azetidine-1-carbonitrile] | 0.01 to 0.1
11 | N#CN1CC(OCc2ccc(-c3cc(C(F)(F)F)cc(C(F)(F)F)c3)cc2)C1 [Example 71, 3-((3′,5′-Bis(trifluoromethyl)-[1,1′-biphenyl]-4-yl)methoxy)azetidine-1-carbonitrile] | 0.01 to 0.1

same assay, conditions: read-out: NAAA Inhibition IC50 μM; purified hNAAA, PAMCA 5 μM, pH 4.5

Row | Structure (SMILES) | IC50 [µM]
12 | CN(Cc1ccc(-c2ccc3c(c2)OCO3)cc1)C1CC(N=C=S)C1 [Example 55, (1R,3R)—N-(4-(benzo[d][1,3]dioxol-5-yl)benzyl)-3-isothiocyanato-N-methylcyclobutan-1-amine] | > 1
13 | CCN(Cc1ccc(-c2ccc3c(c2)OCO3)cc1)C1CC(N=C=S)C1 [Example 56, (1R,3R)—N-(4-(benzo[d][1,3]dioxol-5-yl)benzyl)-N-ethyl-3-isothiocyanatocyclobutan-1-amine] | 0.11 to 1
14 | FC(F)(F)c1cccc(-c2ccc(COC3CCCC(N=C=S)C3)cc2)c1 (stereo not drawn) [Example 58, 4′-(((3-Isothiocyanatocyclohexyl)oxy)methyl)-3-(trifluoromethyl)-1,1′-biphenyl] | > 1
15 | COc1ccc(-c2ccc(COC3CCC(N=C=S)CC3)cc2)cc1F (stereo not drawn) [Example 59, 3-Fluoro-4′-((((1r,4r)-4-isothiocyanatocyclohexyl)oxy)methyl)-4-methoxy-1,1′-biphenyl] | 0.11 to 1
16 | S=C=N[C@@H]1CC[C@@H](OCc2ccc(Br)cc2)C1 [Example 60, 1-Bromo-4-((((1R,3R)-3-isothiocyanatocyclopentyl)oxy)methyl)benzene] | > 1
17 | FC(F)(F)c1cccc(-c2ccc(CO[C@H]3Cc4ccccc4[C@H]3N=C=S)cc2)c1 [Example 61, (1R,2S)-1-isothiocyanato-2-((3′-(trifluoromethyl)-[1,1′-biphenyl]-4-yl)methoxy)-2,3-dihydro-1H-indene] | > 1
18 | COc1ccc(-c2ccc(CO[C@@H]3Cc4ccccc4[C@@H]3N=C=S)cc2)cc1F [Example 62, (1S,2R)-2-((3′-fluoro-4′-methoxy-[1,1′-biphenyl]-4-yl)methoxy)-1-isothiocyanato-2,3-dihydro-1H-indene] | > 1
